Data on nine molecules can be found in PubChem BioAssay (NCI).

Among the test systems are MOLT-4 leukemia; UO-31 renal; COLO 205 colon; EKVX NSCLC; TK-10 renal; HCT-15 colon; HT29 colon; A549 NSCLC; UACC-62 melanoma; SK-MEL-28 melanoma.
Holding throughout (assay): inhibition of tumour cell growth, NCI panel, 48 h

Structures are written as SMILES. “And” between values parts separate entries of the source, which are not always exact repeats. Equal entries are not always repeated.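 Briefly, cells in 96-well plates were exposed to five compound concentrations for 48 h, and endpoints were estimated by linear interpolation. GI50 = concentration required for 50% inhibition of growth. The concentration for full growth arrest is given as TGI.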

With `O=C(Nc1cc(C(F)(F)F)cc(C(F)(F)F)c1)c1cc(Cl)ccc1O`, the GI50 in the experiment with MOLT-4 leukemia is 0.269 µM and 0.332 µM; in the experiment on UO-31 renal, 0.246 µM and 0.224 µM; in the experiment on COLO 205 colon it was 0.696 µM and 1.34 µM; in the experiment on EKVX NSCLC it was 0.295 µM and 0.288 µM; in the experiment with TK-10 renal it was 0.442 µM and 0.387 µM; in the experiment with HCT-15 colon, 0.271 µM and 0.276 µM. The GI50 in the experiment on HT29 colon was 0.339 µM and 0.401 µM; with A549 NSCLC it was 0.293 µM and 0.319 µM; in the experiment with UACC-62 melanoma it was 0.129 µM and 0.1 µM; in the experiment on SK-MEL-28 melanoma, 0.285 µM and 0.199 µM. Further, the TGI in the experiment with MOLT-4 leukemia is 0.845 µM and 2.69 µM; in the experiment with UO-31 renal, 0.856 µM and 0.811 µM; in the experiment on COLO 205 colon it was 2.34 µM and 3.22 µM; in the experiment on EKVX NSCLC it was > 3.58 µM and 3.43 µM; in the experiment with TK-10 renal, > 10 µM and 11.1 µM; in the experiment with HCT-15 colon, 1.62 µM and 1.49 µM. Moreover, the TGI is > 10 µM and 12 µM with HT29 colon; > 4.32 µM and 12.8 µM with A549 NSCLC; 0.668 µM and 0.595 µM in the experiment with UACC-62 melanoma; 1.84 µM and 1.31 µM with SK-MEL-28 melanoma.

In the case of `COc1ccc(-c2ccc(=O)oc2C#Cc2cc(OC)c(OC)c(OC)c2)cc1O`, the GI50 in the experiment on MOLT-4 leukemia was 0.952 µM; in the experiment on UO-31 renal it was 0.585 µM; in the experiment on COLO 205 colon, 4.05 µM; with EKVX NSCLC, 1.38 µM; with TK-10 renal, 6.88 µM; in the experiment on HCT-15 colon, 0.324 µM. Besides, the GI50 in the experiment on HT29 colon was 1.25 µM; in the experiment with A549 NSCLC, 0.563 µM; in the experiment with UACC-62 melanoma it was 0.35 µM; in the experiment on SK-MEL-28 melanoma, 3.25 µM. For the same molecule, the TGI in the experiment with MOLT-4 leukemia is > 100 µM; with COLO 205 colon it was > 40.4 µM; with EKVX NSCLC, > 100 µM; in the experiment on TK-10 renal, > 100 µM; with HCT-15 colon, > 100 µM; in the experiment with HT29 colon, 12.3 µM. Besides, the values for the TGI in the experiment on A549 NSCLC, in the experiment on UACC-62 melanoma and with SK-MEL-28 melanoma were 21.9 µM, > 100 µM and > 100 µM, respectively.

With `CCCC(=O)Nc1cn(COC)c(C(=O)N2C[C@@H]3C[C@]34C2=CC(=O)c2[nH]cc(C)c24)n1`, the GI50 was 1.19 µM with MOLT-4 leukemia; 16.9 µM with UO-31 renal; 6.31 µM in the experiment with COLO 205 colon; 14.8 µM with EKVX NSCLC; 3 µM in the experiment on TK-10 renal; 11.2 µM in the experiment on HT29 colon. The GI50 in the experiment with UACC-62 melanoma was 12.4 µM. Also, the TGI in the experiment on MOLT-4 leukemia is 3.8 µM and 21.2 µM; in the experiment on UO-31 renal, 30.3 µM and 57.3 µM; with COLO 205 colon, 16.6 µM and 23.7 µM; with EKVX NSCLC, > 5 µM and 38.2 µM; in the experiment on TK-10 renal, 19.1 µM and 6.18 µM; with HCT-15 colon it was 50 µM and 38.9 µM. In addition, the TGI in the experiment on HT29 colon was 21.1 µM and 37.7 µM; in the experiment with A549 NSCLC, 50 µM and 30 µM; with UACC-62 melanoma, 16.8 µM and 24.9 µM; with SK-MEL-28 melanoma it was 50 µM and 32.2 µM.

For the molecule `COCC(OC)C(CC=C(C#N)C#N)OC` (stereo unspecified), the TGI with MOLT-4 leukemia, in the experiment on UO-31 renal, in the experiment with COLO 205 colon, in the experiment on EKVX NSCLC, in the experiment with TK-10 renal and in the experiment on HCT-15 colon was > 100 µM in each case. The TGI in the experiment with HT29 colon, in the experiment with A549 NSCLC, with UACC-62 melanoma and with SK-MEL-28 melanoma was > 100 µM throughout.

As for `COC(=O)/C(=N\NC(N)=S)C(C(=O)OC)C(=O)C(=O)Nc1ccc(C)cc1` (stereo unspecified), the TGI in the experiment with MOLT-4 leukemia, with UO-31 renal, in the experiment with COLO 205 colon, in the experiment with EKVX NSCLC, with TK-10 renal and in the experiment with HCT-15 colon was > 100 µM throughout. Besides, the TGI with HT29 colon, with A549 NSCLC, in the experiment on UACC-62 melanoma and with SK-MEL-28 melanoma was > 100 µM in each case.

In the case of `COc1cc(N=Nc2ccc(O)c3ncccc23)c2ncccc2c1`, the GI50 in the experiment on MOLT-4 leukemia was 3.5 µM; in the experiment on UO-31 renal it was 2.56 µM; with COLO 205 colon, 5.65 µM; in the experiment with EKVX NSCLC, 4.08 µM; with TK-10 renal, 9.81 µM; with HCT-15 colon, 0.923 µM. Besides, the GI50 in the experiment with HT29 colon was 6.65 µM; in the experiment with A549 NSCLC, 8.04 µM; in the experiment on UACC-62 melanoma, 2.4 µM; with SK-MEL-28 melanoma, 4.06 µM. Also, the TGI in the experiment with MOLT-4 leukemia was > 100 µM; in the experiment on UO-31 renal, 25.3 µM; in the experiment with COLO 205 colon, > 100 µM; in the experiment with EKVX NSCLC, > 100 µM; in the experiment with TK-10 renal, > 100 µM; with HCT-15 colon, > 100 µM. The TGI was > 100 µM with HT29 colon, > 100 µM in the experiment with A549 NSCLC, 7.68 µM with UACC-62 melanoma and > 100 µM in the experiment on SK-MEL-28 melanoma.

As for `Cc1nc(Nc2cccnc2)sc1C(=O)/C=C/c1ccc(F)cc1`, the GI50 is 3.2 µM in the experiment with MOLT-4 leukemia; 2.81 µM in the experiment on UO-31 renal; 2.81 µM in the experiment with COLO 205 colon; 5.15 µM with EKVX NSCLC; 2.98 µM in the experiment on TK-10 renal; 2.14 µM in the experiment on HCT-15 colon. The GI50 is 2.76 µM in the experiment with HT29 colon, 3.15 µM in the experiment on A549 NSCLC, 1.99 µM in the experiment with UACC-62 melanoma and 3.72 µM in the experiment on SK-MEL-28 melanoma. Moreover, the TGI is > 100 µM in the experiment with MOLT-4 leukemia; 16.9 µM in the experiment with UO-31 renal; 8.86 µM in the experiment on COLO 205 colon; > 100 µM in the experiment with EKVX NSCLC; > 100 µM in the experiment with TK-10 renal; 10.2 µM in the experiment with HCT-15 colon. Moreover, the TGI in the experiment on HT29 colon is 10.1 µM; in the experiment with A549 NSCLC it was > 100 µM; with UACC-62 melanoma, 4.99 µM; in the experiment on SK-MEL-28 melanoma, 21.4 µM.

For `CC(=O)ON1CCCC(P(=O)(OCCSC(=O)C(C)(C)C)OCCSC(=O)C(C)(C)C)C1=O` (stereo unspecified), the GI50 with MOLT-4 leukemia was 0.854 µM; in the experiment with UO-31 renal, 0.413 µM; in the experiment on COLO 205 colon, 3.88 µM; in the experiment on EKVX NSCLC it was 2.1 µM; with TK-10 renal it was 3.57 µM; in the experiment with HCT-15 colon, 0.973 µM. Besides, the GI50 is 1.28 µM with HT29 colon, 1.52 µM in the experiment on A549 NSCLC, 1.57 µM in the experiment on UACC-62 melanoma and 1.56 µM in the experiment with SK-MEL-28 melanoma. The TGI is 11.5 µM with MOLT-4 leukemia; 11.3 µM with UO-31 renal; > 100 µM in the experiment with COLO 205 colon; 49.6 µM in the experiment with EKVX NSCLC; 93.3 µM in the experiment with TK-10 renal; 76.1 µM with HCT-15 colon. Also, the TGI with HT29 colon was > 100 µM; with A549 NSCLC, > 100 µM; in the experiment on UACC-62 melanoma, 8.58 µM; with SK-MEL-28 melanoma, 15.5 µM.

As for `COC(=O)C1CCCC2(C1)OCCO2` (stereo unspecified), the TGI in the experiment with MOLT-4 leukemia, in the experiment with UO-31 renal, in the experiment with COLO 205 colon, in the experiment on EKVX NSCLC, in the experiment with TK-10 renal and in the experiment on HCT-15 colon was > 100 µM each time. The TGI with HT29 colon, with A549 NSCLC, in the experiment with UACC-62 melanoma and in the experiment with SK-MEL-28 melanoma was > 100 µM each time.
